Tests used:
hippocampal microvessels = experiment: Electron microscopy of the cerebrovascular system; format: in vivo, male C57BI/6 mice; conditions: age 24 months
Method: (§1) The experiment was performed with male C57BI/6 mice (Harlan, Horst, The Netherlands). Animals were individually housed under a 12 hours light/12 hours dark cycle with lights on at 8:00. Food and drinking water were provided ad libitum, except for the period of behavioural testing as described below. The experiment was started with 60 mice, half of which served as control (CON) and half of which received resveratrol in their food from the age of 1 year onwards (RES). Between the ages of 18 and 20 month, spatial learning performance of the animals was studied in a Y-maze test. At the age of 24 month, brains were collected and processed for immunocytochemistry to asses cholinergic parameters and electron microscopy for several cerebrovascular analyses. The procedures concerning animal care and treatment were in accordance with the regulations of the ethical committee for the use of experimental animals of the University of Groningen.
At the age of 24 months animals were sacrificed for histochemical and electronmicroscopical analysis. Mice were anaesthetized by a high dose of pentobarbital sodium salt (Nembutal, 60 mg/kg bodyweight) and transcardially perfused with heparinised saline followed by 4% phosphate buffered paraformaldehyde. After perfusions, brains were removed from the skull and kept in 0.01 M PBS overnight. […]
After perfusion, 18 brains were prepared for electron microscopy using standard methods. […] The samples were then coverslipped with DPX and analyzed under a light microscope. […] Finally, the samples were analyzed and photographs were taken with a Philips TM10 transmission electron microscope.
For quantitative analysis, approximately 4000 μm^2 tissue surface was scanned systematically in each region, and 61±10 microvascular cross sections were examined in each sample. Vascular density was calculated for a standard surface area with the help of the sample grid. In addition to microvessel density, the occurrence of the following features were quantitated: luminal endothelial protrusions, large empty endothelial vacuoles and basement membrane thickening. […] The number of microvessels displaying any of the noted abnormalities was counted and expressed as percentage of the total number of microvessels examined. Capillaries and arterioles were analyzed separately. Since arterioles were encountered at high enough number for statistical analysis only in the hippocampal vascular layer, quantitative analysis of arteriolar condition was performed for this region of the hippocampus alone.
(§2) Behavioural performance was statistically analyzed with a one way ANOVA paradigm for repeated measures. Immunocytochemical data and EM data were statistically analyzed with an independent samples T-test (2-tailed). Data are expressed as averages ±S.E.M. P<0.05 was considered as significant.

[1] = Survival, food intake, body weight and general health under chronic dietary supplementation; format: in vivo
Method: as §1
To rule out differences in food intake between animals on a control diet and resveratrol-supplemented diet, food intake and body weight were monitored every two weeks. To establish whether resveratrol provided in the food enters the circulation, a pilot experiment was performed in which blood was collected from mice by decapitation after 1 day and 30 days of supplementation. Plasma concentrations of resveratrol were measured. After 1 day of supplementation, resveratrol levels in the plasma were 88.5 μg/l at the end of the dark phase or active phase, when mice consume most of their food, and 41 μg/l at the end of the light phase or resting phase (n=3 each). After 1 month of supplementation, the levels were 102.7 and 30.7 μg/l at the end of active phase and rest phase, respectively (n=3 each). These measurements confirm that resveratrol ingested via the food indeed entered the circulation, and the levels appeared to fluctuate over the day in a fashion that paralleled food intake. Supplementation of resveratrol via food thus seemed an appropriate and simple method for further studies.
Animals received resveratrol in their food from 1 year of age onwards. […]

aged mice [2] = experiment: Open field test (general explorative activity); format: in vivo, male C57BI/6 mice; conditions: chronic supplementation
Method: as §1, with “The procedures concerning animal care and treatment were in accordance with the regulations of the ethical committee for the use of experimental animals of the University of Groningen.” left out
To examine general explorative activity, mice were subjected to an open-field test for 5 minutes. […] Position and locomotion of the mice was recorded and analyzed with a computerized video tracking system (Ethovision, Noldus Information Technology, Wageningen, The Netherlands). The number of visits and time spend in each of the two zones was determined. […]
as §2

[3] = test system: cholinergic system (nucleus basalis, hippocampus); experiment: AChE histochemistry of cholinergic cells and fibres; format: in vivo, male C57BI/6 mice; conditions: age 24 months, RES versus CON
Method: The experiment was performed with male C57BI/6 mice (Harlan, Horst, The Netherlands). Animals were individually housed under a 12 hours light/12 hours dark cycle with lights on at 8:00. Food and drinking water were provided ad libitum, except for the period of behavioural testing as described below. The experiment was started with 60 mice, half of which served as control (CON) and half of which received resveratrol in their food from the age of 1 year onwards (RES). Between the ages of 18 and 20 month, spatial learning performance of the animals was studied in a Y-maze test. […]
For histology, brain tissue was cryoprotected in 30% sucrose in 0.1 M phosphate buffer for 48 h after which 20 μm sections were cut with a cryostat (Leica CM3050). […] Cells positive for AChE were quantified in sections containing nucleus basalis (around bregma −0.7) and AChE fibre density measurements were performed by a computerized image analysis system Quantimet (Leica) in the dorsal hippocampus.
as §2

aged mice [4] = experiment: Y-maze spatial learning test; format: in vivo, male C57BI/6 mice
Method: as §1
To examine cognitive performance, the mice were subjected to a Y-maze test in which they had to learn the location of a food reward in one of two accessible choice arms. […] The home cages of the mice were equipped with a small sliding door that connected to the starting arm. One of the two test arms was baited with a food reward consisting of small crumbs of the regular food. Food crumbs were also placed below perforations at the end of the two test arms to prevent animals from discriminating between baited and non-baited arms by olfactory cues. […]
The Y-maze test took place during the first half of the light phase between 10:00 and 14:00 in a room adjacent to the home cage room. […] A visit to the baited arm was recorded as a correct trial. […]
as §2

[5] = hippocampal microvessels, versus control

Oc1ccc(C=Cc2cc(O)cc(O)c2)cc1 [Resveratrol, 3,5,4′-trihydroxystilbene]
vascular density in the hippocampus, higher than in control animals (hippocampal microvessels; chronic supplementation, p=0.019): about 15%
number of microvessels with endothelial vacuoles (hippocampal microvessels; hippocampal arterioles, versus control, p=0.05): significantly reduced
occurrence of basement membrane thickening (hippocampal microvessels; [5]): not significantly affected
occurrence of endothelial processes (hippocampal microvessels; [5]): not significantly affected
food intake, growth and body weight ([1]; mouse, in vivo): did not affect food intake, growth and body weight
general health (regular visual inspection) ([1]; mouse, in vivo): did not indicate obvious differences in general health
mortality rate ([1]; resveratrol in food from 1 year to 24 months of age, RES versus CON): no significant differences in mortality rate
more time spent in the centre of the arena than control animals (aged mice [2]; 5 minutes open field test, p=0.003): about 50%
locomotion (total distance covered) in open field (aged mice [2]; 5 minutes test, RES versus CON): the same amount of locomotion
cholinergic cell number in the nucleus basalis [3]: did not reveal any difference
cholinergic fibre density in the CA1 and dentate gyrus of the hippocampus [3]: unchanged
Y-maze final level of performance on day 3 and retention trial on day 10 (aged mice [4]; RES versus CON): not different
Y-maze performance on the second day of the training phase (aged mice [4]; posthoc test, RES versus CON, p<0.05): performed better then CON animals
Y-maze learning (number of correct choices on day 1 to 3) (aged mice [4]; training phase, age 18-20 months, repeated measures ANOVA p=0.016): improved learning
